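Test compounds were applied to cells in 96-well plates for 48 hours at 5 doses. GI50 is the concentration that inhibits growth by half.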 Activity calls are given as the source filed them. No stated cut-off is given here; in the data, active = GI50 up to about 1.1 µM and inactive = higher.
Tests used:
Experiment in all cases: DTP human tumour cell line panel, 48 h
U-251 = tested on: U-251
UACC-62 = tested on: UACC-62
HCT-116 = tested on: HCT-116
HL-60 = tested on: HL-60
SR = tested on: SR
NCI-H522 = tested on: NCI-H522
Malme-3M = tested on: Malme-3M
SK-OV-3 = tested on: SK-OV-3
A498 = tested on: A498
HOP-62 = tested on: HOP-62
K562 = tested on: K562
UACC-257 = tested on: UACC-257
SF-539 = tested on: SF-539
HCC 2998 = tested on: HCC 2998
EKVX = tested on: EKVX
HCT-15 = tested on: HCT-15
MCF7 = tested on: MCF7
DU-145 = tested on: DU-145
Hs-578T = tested on: Hs-578T

Row | Structure (SMILES) | GI50 (U-251) | GI50 (UACC-62) | GI50 (HCT-116) | GI50 (HL-60) | GI50 (SR) | GI50 (NCI-H522) | GI50 (Malme-3M) | GI50 (SK-OV-3) | GI50 (A498) | GI50 (HOP-62) | GI50 (K562) | GI50 (UACC-257) | GI50 (SF-539) | GI50 (HCC 2998) | GI50 (EKVX) | GI50 (HCT-15) | GI50 (MCF7) | GI50 (DU-145) | GI50 (Hs-578T)
1 | COC(=O)/C=C/C1C(C(=O)OC)C2(C(=O)OC)CCC1(C(=O)OC)N2 (stereo not drawn) | > 100 µM (inactive) | > 100 µM (inactive) | > 100 µM (inactive) | > 100 µM (inactive) | > 100 µM (inactive) | > 100 µM (inactive) | > 100 µM (inactive) | > 100 µM (inactive) | > 100 µM (inactive) | > 100 µM (inactive) | > 100 µM (inactive) | > 100 µM (inactive) | > 100 µM (inactive) | > 100 µM (inactive) | > 100 µM (inactive) | > 100 µM | – | – | –
2 | CC1=C(C(=O)Nc2ccccc2)C(c2ccc(Cl)c(Cl)c2)C(C(=O)Nc2ccccc2)=C(C)N1 | 14.5 µM (inactive) | 10.2 µM (inactive) | 10.4 µM (inactive) | – | – | 11.6 µM (inactive) | 12.7 µM (inactive) | 15.1 µM (inactive) | 16.7 µM (inactive) | 14.5 µM (inactive) | – | 12.7 µM (inactive) | 17.3 µM (inactive) | – | 16.6 µM (inactive) | 10.9 µM | – | – | –
3 | CC(c1cccc2ccccc12)/[N+]([O-])=C/c1ccccc1 (stereo not drawn) | > 100 µM (inactive) | – | > 100 µM (inactive) | 99.5 µM (inactive) | – | 78.7 µM (inactive) | > 100 µM (inactive) | > 100 µM (inactive) | > 100 µM (inactive) | > 100 µM (inactive) | > 100 µM (inactive) | > 100 µM (inactive) | > 100 µM (inactive) | > 100 µM (inactive) | 70.8 µM (inactive) | – | – | – | –
4 | CSc1nnc(CCC(=O)Nc2c(C)cccc2C)o1 | > 100 µM (inactive) | > 100 µM (inactive) | > 100 µM (inactive) | > 100 µM (inactive) | – | > 100 µM (inactive) | > 100 µM (inactive) | > 100 µM (inactive) | > 100 µM (inactive) | > 100 µM (inactive) | > 100 µM (inactive) | > 100 µM (inactive) | > 100 µM (inactive) | > 100 µM (inactive) | > 100 µM (inactive) | 50.8 µM | – | – | –
5 | COc1ccc2nc(NC(=O)C(=O)C(C#N)c3ccc(Cl)c(Cl)c3)sc2c1 (stereo not drawn) | > 100 µM (inactive) | > 100 µM (inactive) | 62.4 µM (inactive) | > 100 µM (inactive) | – | 36.9 µM (inactive) | > 100 µM (inactive) | > 100 µM (inactive) | > 100 µM (inactive) | > 100 µM (inactive) | > 100 µM (inactive) | > 100 µM (inactive) | 63.4 µM (inactive) | – | 88.9 µM (inactive) | > 100 µM | – | – | –
6 | CCCCCCCCNC(=O)SCCCC | 36.9 µM (inactive) | 43.2 µM (inactive) | – | 18.8 µM (inactive) | – | 24.4 µM (inactive) | 23.1 µM (inactive) | > 100 µM (inactive) | 45.5 µM (inactive) | – | 34.4 µM (inactive) | – | 38.6 µM (inactive) | – | 29.4 µM (inactive) | 27.9 µM | – | – | –
7 | CCCc1ccc(/N=C\c2cc(OC)c(OC)c(OC)c2)cc1 | > 100 µM (inactive) | > 100 µM (inactive) | > 63.4 µM (inactive) | 21.5 µM (inactive) | 55.5 µM (inactive) | > 59.2 µM (inactive) | > 100 µM (inactive) | > 100 µM (inactive) | > 100 µM (inactive) | > 100 µM (inactive) | 36 µM (inactive) | > 100 µM (inactive) | > 100 µM (inactive) | – | > 100 µM (inactive) | > 39.9 µM | – | – | –
8 | CC(C)C(=O)/C=C/c1ccccc1 | 61.2 µM (inactive) | 87.3 µM (inactive) | 67.3 µM (inactive) | 42.3 µM (inactive) | 31.2 µM (inactive) | 31 µM (inactive) | – | > 100 µM (inactive) | > 100 µM (inactive) | – | 33.7 µM (inactive) | 94.8 µM (inactive) | > 100 µM (inactive) | > 100 µM (inactive) | – | – | – | – | –
9 | N#C/C(=C\c1ccc(O)cc1O)C(N)=O | > 100 µM (inactive) | 58.6 µM (inactive) | 94.2 µM (inactive) | 53.6 µM (inactive) | – | 28.3 µM (inactive) | 90.8 µM (inactive) | 45.6 µM (inactive) | 65 µM (inactive) | > 100 µM (inactive) | > 100 µM (inactive) | 51.1 µM (inactive) | > 100 µM (inactive) | > 100 µM (inactive) | > 100 µM (inactive) | > 100 µM | – | – | –
10 | Nc1c([N+](=O)[O-])nc(Cl)c2nncn12 | > 71.9 µM (inactive) | > 100 µM (inactive) | > 45 µM (inactive) | > 100 µM (inactive) | 19.9 µM (inactive) | > 74.6 µM (inactive) | > 100 µM (inactive) | > 100 µM (inactive) | > 100 µM (inactive) | > 100 µM (inactive) | > 72.4 µM (inactive) | > 100 µM (inactive) | > 95.5 µM (inactive) | > 100 µM (inactive) | > 100 µM (inactive) | 19.3 µM | – | – | –
11 | O=c1[nH]c2c3ccccc3ccc2c2cc3c(cc12)OCO3 | > 100 µM (inactive) | > 100 µM (inactive) | 83.2 µM (inactive) | – | – | 42.5 µM (inactive) | > 100 µM (inactive) | > 100 µM (inactive) | – | 89.1 µM (inactive) | 38.5 µM (inactive) | > 100 µM (inactive) | > 100 µM (inactive) | > 100 µM (inactive) | 49.2 µM (inactive) | 71.6 µM | – | – | –
12 | Clc1ccc(C2SCc3nc4ccccc4n32)cc1Cl (stereo not drawn) | 16 µM (inactive) | 13.2 µM (inactive) | 13.2 µM (inactive) | 5.9 µM (inactive) | 13.9 µM (inactive) | 11.5 µM (inactive) | 18.8 µM (inactive) | 21.4 µM (inactive) | – | 14.5 µM (inactive) | 8.34 µM (inactive) | – | 17.1 µM (inactive) | – | 14.4 µM (inactive) | 13.3 µM | – | – | –
13 | CCOC(=O)/C(=C/c1ccc(C#N)cc1)N(CC)CC | > 100 µM (inactive) | > 100 µM (inactive) | > 100 µM (inactive) | > 100 µM (inactive) | > 100 µM (inactive) | > 100 µM (inactive) | > 100 µM (inactive) | > 100 µM (inactive) | > 100 µM (inactive) | > 100 µM (inactive) | > 100 µM (inactive) | > 100 µM (inactive) | > 100 µM (inactive) | > 100 µM (inactive) | > 100 µM (inactive) | > 100 µM | – | – | –
14 | CC(C)=CCC/C(C)=C/CC/C(C)=C/C1CCC(=O)C1(C)C (stereo not drawn) | 18.1 µM (inactive) | 19.1 µM (inactive) | 17 µM (inactive) | 11.6 µM (inactive) | 19.7 µM (inactive) | 15.2 µM (inactive) | 18.3 µM (inactive) | 30.3 µM (inactive) | 18.5 µM (inactive) | 26.5 µM (inactive) | 19.8 µM (inactive) | 21.3 µM (inactive) | 19.5 µM (inactive) | 22.9 µM (inactive) | 19.7 µM (inactive) | 15.5 µM | – | – | –
15 | CC1(C)CC[C@]2(C)CC=C3[C@]4(C)CC[C@H]5C(C)(C)C(=O)CC[C@]5(C)[C@H]4CC[C@@]3(C)[C@H]2C1 | > 100 µM (inactive) | > 100 µM (inactive) | > 100 µM (inactive) | – | > 100 µM (inactive) | > 100 µM (inactive) | > 100 µM (inactive) | > 100 µM (inactive) | > 100 µM (inactive) | > 100 µM (inactive) | – | > 100 µM (inactive) | > 100 µM (inactive) | > 100 µM (inactive) | > 100 µM (inactive) | > 100 µM | > 100 µM (inactive) | > 100 µM (inactive) | > 100 µM (inactive)
16 | C[C@]12CCc3nn(-c4ccccc4)nc3C1CC[C@@H]1C2CC[C@]2(C)C(=O)CCC12 (stereo partly drawn) | > 100 µM (inactive) | > 100 µM (inactive) | > 100 µM (inactive) | > 100 µM (inactive) | > 100 µM (inactive) | > 100 µM (inactive) | > 100 µM (inactive) | > 100 µM (inactive) | – | > 100 µM (inactive) | 54.3 µM (inactive) | > 100 µM (inactive) | > 100 µM (inactive) | > 100 µM (inactive) | > 100 µM (inactive) | > 100 µM | – | – | –
17 | CC(=O)N1CCC(=O)/C(=C/c2ccccc2)C1 | 17.1 µM (inactive) | 24.7 µM (inactive) | 18.1 µM (inactive) | – | 24.5 µM (inactive) | – | 91.2 µM (inactive) | 75.2 µM (inactive) | 56.5 µM (inactive) | 89.3 µM (inactive) | 37.8 µM (inactive) | > 100 µM (inactive) | 23.3 µM (inactive) | 33.1 µM (inactive) | – | 17.1 µM | – | – | –
18 | CN1COc2c(n(C)c(=O)[nH]c2=O)C1 | > 100 µM (inactive) | > 80 µM (inactive) | 57.5 µM (inactive) | 24.4 µM (inactive) | 27.2 µM (inactive) | > 100 µM (inactive) | > 100 µM (inactive) | > 100 µM (inactive) | > 100 µM (inactive) | > 100 µM (inactive) | > 100 µM (inactive) | > 100 µM (inactive) | > 100 µM (inactive) | > 100 µM (inactive) | > 100 µM (inactive) | 98.2 µM | – | – | –
19 | CC[S+]([O-])C(=O)N(O)c1ccc(Cl)cc1 (stereo not drawn) | 19.4 µM (inactive) | 8.55 µM (inactive) | 24.4 µM (inactive) | – | – | – | – | > 100 µM (inactive) | 56.4 µM (inactive) | > 100 µM (inactive) | 16.2 µM (inactive) | 23.2 µM (inactive) | 24.9 µM (inactive) | 43.3 µM (inactive) | 26.7 µM (inactive) | 23.8 µM | 20.4 µM (inactive) | > 100 µM (inactive) | 41.2 µM (inactive)
